Measured values published in PubChem BioAssay (NCI).
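Tested at 5 concentrations; 48 h exposure; 96-well plates; endpoints linearly interpolated, else capped at highest concentration. Abbreviation: GI50, concentration required for 50% inhibition of growth. TGI marks complete inhibition of growth.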

Tests used:
Assay in all cases: inhibition of tumour cell growth, NCI panel, 48 h
[1] = test system: SN12C renal
[2] = test system: OVCAR-5 ovarian
[3] = test system: IGROV1 ovarian
[4] = test system: SK-MEL-2 melanoma
[5] = test system: OVCAR-8 ovarian
[6] = test system: NCI-H522 lung
[7] = test system: NCI-H226 lung
[8] = test system: ACHN renal
[9] = test system: M14 melanoma
[10] = test system: U251 CNS
[11] = test system: HCC-2998 colon
[12] = test system: A549 NSCLC
[13] = test system: MDA-MB-231 breast
[14] = test system: MDA-MB-435
[15] = test system: SW-620 colon
[16] = test system: CAKI-1 renal
[17] = test system: BT-549 breast
[18] = test system: HCT-15 colon
[19] = test system: PC-3 prostate
[20] = test system: SF-295 CNS
[21] = test system: OVCAR-4 ovarian
[22] = test system: TK-10 renal
[23] = test system: HOP-92 NSCLC
[24] = test system: HL-60(TB) leukemia
[25] = test system: NCI-H460 lung
[26] = test system: MALME-3M melanoma
[27] = test system: UACC-257 melanoma
[28] = test system: HCT-116 colon
[29] = test system: RXF 393 renal
[30] = test system: HOP-62 NSCLC
[31] = test system: HS 578T breast
[32] = test system: 786-0 renal
[33] = test system: OVCAR-3 ovarian
[34] = test system: KM12 colon
[35] = test system: DU-145 prostate
[36] = test system: COLO 205 colon
[37] = test system: MOLT-4 leukemia
[38] = test system: NCI-H23 lung
[39] = test system: T-47D breast
[40] = test system: SK-MEL-5 melanoma
[41] = test system: SK-OV-3 ovarian
[42] = test system: SF-539 CNS
[43] = test system: RPMI-8226 leukemia
[44] = test system: SNB-19 CNS
[45] = test system: UACC-62 melanoma
[46] = test system: MCF7 breast
[47] = test system: UO-31 renal
[48] = test system: A498 renal
[49] = test system: K-562 leukemia
[50] = test system: NCI/ADR-RES ovarian
[51] = test system: HT29 colon
[52] = test system: LOX IMVI melanoma
[53] = test system: SF-268 CNS
[54] = test system: SR leukemia
[55] = test system: CCRF-CEM leukemia
[56] = test system: SNB-75 CNS
[57] = test system: SK-MEL-28 melanoma

Q: For `O=CN/N=C/c1ccc(Cl)c([N+](=O)[O-])c1`, which GI50 [1] is on record?
A: Its GI50 is 0.503 µM.

Q: And the TGI [1]?
A: The TGI was 21.9 µM.

Q: And the GI50 [2]?
A: Its GI50 is 0.189 µM.

Q: What about the TGI [2] of the same compound?
A: Its TGI is over 100 µM.

Q: What about the GI50 [3] of the same compound?
A: Its GI50 is 0.0728 µM.

Q: What about the TGI [3] of the same compound?
A: The TGI was 21.9 µM.

Q: What about the GI50 [4] of the same compound?
A: Its GI50 is 5.43 µM.

Q: What about the TGI [4] of the same compound?
A: Its TGI is 22.6 µM.

Q: What about the GI50 [5] of the same compound?
A: The GI50 was 0.567 µM.

Q: And the TGI [5]?
A: Its TGI is over 100 µM.

Q: And the GI50 [6]?
A: The GI50 was 0.451 µM.

Q: What about the TGI [6] of the same compound?
A: The TGI was 19.9 µM.

Q: What about the GI50 [7] of the same compound?
A: Its GI50 is 0.725 µM.

Q: What about the TGI [7] of the same compound?
A: Its TGI is over 100 µM.

Q: And the GI50 [8]?
A: Its GI50 is 5.17 µM.

Q: What about the TGI [8] of the same compound?
A: Its TGI is over 100 µM.

Q: What about the GI50 [9] of the same compound?
A: The GI50 was 0.513 µM.

Q: And the TGI [9]?
A: The TGI was over 46.5 µM.

Q: And the GI50 [10]?
A: Its GI50 is 0.0617 µM.

Q: And the TGI [10]?
A: The TGI was 25.8 µM.

Q: What about the GI50 [11] of the same compound?
A: Its GI50 is 0.37 µM.

Q: And the TGI [11]?
A: The TGI was 19.6 µM.

Q: What about the GI50 [12] of the same compound?
A: Its GI50 is 0.337 µM.

Q: What about the TGI [12] of the same compound?
A: The TGI was over 100 µM.

Q: What about the GI50 [13] of the same compound?
A: The GI50 was 1.54 µM.

Q: And the TGI [13]?
A: The TGI was 27.3 µM.

Q: And the GI50 [14]?
A: The GI50 was 0.0611 µM.

Q: And the TGI [14]?
A: Its TGI is 18.6 µM.

Q: And the GI50 [15]?
A: The GI50 was 0.0596 µM.

Q: What about the TGI [15] of the same compound?
A: The TGI was over 100 µM.

Q: And the GI50 [16]?
A: The GI50 was 4.04 µM.

Q: What about the TGI [16] of the same compound?
A: Its TGI is over 100 µM.

Q: And the GI50 [17]?
A: Its GI50 is 3.31 µM.

Q: And the TGI [17]?
A: The TGI was 20 µM.

Q: What about the GI50 [18] of the same compound?
A: Its GI50 is 4.14 µM.

Q: What about the TGI [18] of the same compound?
A: The TGI was over 100 µM.

Q: And the GI50 [19]?
A: Its GI50 is 0.0249 µM.

Q: And the TGI [19]?
A: The TGI was 13.2 µM.

Q: What about the GI50 [20] of the same compound?
A: Its GI50 is 0.623 µM.

Q: What about the TGI [20] of the same compound?
A: Its TGI is over 79.9 µM.

Q: What about the GI50 [21] of the same compound?
A: Its GI50 is 0.684 µM.

Q: And the TGI [21]?
A: Its TGI is 60.6 µM.

Q: And the GI50 [22]?
A: The GI50 was 2.4 µM.

Q: What about the TGI [22] of the same compound?
A: Its TGI is 71.3 µM.

Q: What about the GI50 [23] of the same compound?
A: The GI50 was 1.24 µM.

Q: What about the TGI [23] of the same compound?
A: The TGI was 21.1 µM.

Q: And the GI50 [24]?
A: Its GI50 is 0.125 µM.

Q: And the TGI [24]?
A: The TGI was 18.4 µM.

Q: And the GI50 [25]?
A: Its GI50 is 0.0427 µM.

Q: What about the TGI [25] of the same compound?
A: The TGI was 14.8 µM.

Q: And the GI50 [26]?
A: Its GI50 is 3.19 µM.

Q: What about the TGI [26] of the same compound?
A: The TGI was 33 µM.

Q: What about the GI50 [27] of the same compound?
A: Its GI50 is 0.618 µM.

Q: What about the TGI [27] of the same compound?
A: The TGI was 27.4 µM.

Q: And the GI50 [28]?
A: Its GI50 is 0.0536 µM.

Q: What about the TGI [28] of the same compound?
A: Its TGI is over 100 µM.

Q: And the GI50 [29]?
A: Its GI50 is 0.399 µM.

Q: And the TGI [29]?
A: The TGI was over 100 µM.

Q: What about the GI50 [30] of the same compound?
A: Its GI50 is 1.47 µM.

Q: What about the TGI [30] of the same compound?
A: Its TGI is 49.7 µM.

Q: What about the GI50 [31] of the same compound?
A: The GI50 was 9.41 µM.

Q: What about the TGI [31] of the same compound?
A: Its TGI is 40.7 µM.

Q: And the GI50 [32]?
A: Its GI50 is 0.544 µM.

Q: And the TGI [32]?
A: Its TGI is over 100 µM.

Q: And the GI50 [33]?
A: Its GI50 is 0.555 µM.

Q: And the TGI [33]?
A: The TGI was 20.7 µM.

Q: And the GI50 [34]?
A: Its GI50 is 0.228 µM.

Q: And the TGI [34]?
A: Its TGI is 15.1 µM.

Q: What about the GI50 [35] of the same compound?
A: The GI50 was 0.401 µM.

Q: What about the TGI [35] of the same compound?
A: The TGI was over 100 µM.

Q: What about the GI50 [36] of the same compound?
A: The GI50 was 0.11 µM.

Q: And the TGI [36]?
A: The TGI was 15.4 µM.

Q: What about the GI50 [37] of the same compound?
A: Its GI50 is 0.577 µM.

Q: And the TGI [37]?
A: The TGI was 46.8 µM.

Q: And the GI50 [38]?
A: The GI50 was 0.396 µM.

Q: What about the TGI [38] of the same compound?
A: The TGI was 48.1 µM.

Q: And the GI50 [39]?
A: Its GI50 is 2.92 µM.

Q: What about the TGI [39] of the same compound?
A: Its TGI is 51.7 µM.

Q: What about the GI50 [40] of the same compound?
A: Its GI50 is 0.402 µM.

Q: And the TGI [40]?
A: Its TGI is 3.7 µM.

Q: What about the GI50 [41] of the same compound?
A: The GI50 was 7.33 µM.

Q: What about the TGI [41] of the same compound?
A: The TGI was over 100 µM.

Q: What about the GI50 [42] of the same compound?
A: The GI50 was 0.309 µM.

Q: What about the TGI [42] of the same compound?
A: The TGI was 13.7 µM.

Q: And the GI50 [43]?
A: The GI50 was 0.439 µM.

Q: What about the TGI [43] of the same compound?
A: The TGI was 17.4 µM.

Q: What about the GI50 [44] of the same compound?
A: The GI50 was 0.518 µM.

Q: What about the TGI [44] of the same compound?
A: Its TGI is 46.6 µM.

Q: What about the GI50 [45] of the same compound?
A: The GI50 was 0.327 µM.

Q: What about the TGI [45] of the same compound?
A: The TGI was 14.6 µM.

Q: What about the GI50 [46] of the same compound?
A: The GI50 was 0.351 µM.

Q: And the TGI [46]?
A: Its TGI is 58.6 µM.

Q: What about the GI50 [47] of the same compound?
A: Its GI50 is 54.1 µM.

Q: What about the TGI [47] of the same compound?
A: Its TGI is over 100 µM.

Q: And the GI50 [48]?
A: The GI50 was 2.14 µM.

Q: What about the TGI [48] of the same compound?
A: Its TGI is 90.5 µM.

Q: What about the GI50 [49] of the same compound?
A: The GI50 was 0.197 µM.

Q: And the TGI [49]?
A: Its TGI is over 100 µM.

Q: What about the GI50 [50] of the same compound?
A: The GI50 was over 100 µM.

Q: And the TGI [50]?
A: Its TGI is over 100 µM.

Q: And the GI50 [51]?
A: The GI50 was 0.0457 µM.

Q: What about the TGI [51] of the same compound?
A: The TGI was 14.4 µM.

Q: What about the GI50 [52] of the same compound?
A: Its GI50 is 0.111 µM.

Q: What about the TGI [52] of the same compound?
A: The TGI was 13.7 µM.

Q: And the GI50 [53]?
A: Its GI50 is 0.172 µM.

Q: And the TGI [53]?
A: The TGI was 18.4 µM.

Q: And the GI50 [54]?
A: The GI50 was 0.126 µM.

Q: And the TGI [54]?
A: The TGI was 22.6 µM.

Q: And the GI50 [55]?
A: Its GI50 is 0.243 µM.

Q: And the TGI [55]?
A: The TGI was 72.6 µM.

Q: And the GI50 [56]?
A: The GI50 was 0.787 µM.

Q: And the TGI [56]?
A: Its TGI is 31.5 µM.

Q: And the GI50 [57]?
A: Its GI50 is 0.899 µM.

Q: And the TGI [57]?
A: The TGI was 24 µM.
